Legend:
A549 = assay: Cytotoxicity against human A549 cells incubated for 72 hrs by MTS assay; type: functional, cell-based; details: A549, 72 h
U2OS = assay: Cytotoxicity against human U2OS cells incubated for 72 hrs by MTS assay; type: functional, cell-based
CCRF-CEM = assay: Cytotoxicity against human CCRF-CEM cells incubated for 72 hrs by MTS assay; type: functional, cell-based
[1] = Cytotoxicity against human K562-TAX cells incubated for 72 hrs by MTS assay; type: functional, cell-based
MRC5 = assay: Cytotoxicity against human MRC5 cells incubated for 72 hrs by MTS assay; type: cell-based; details: MRC5, 72 h
[2] = Cytotoxicity against human CEM-DNR-bulk cells incubated for 72 hrs by MTS assay; type: functional, cell-based
BJ = assay: Cytotoxicity against human BJ cells incubated for 72 hrs by MTS assay; type: cell-based
HCT-116 [3] = assay: Cytotoxicity against human HCT116 cells incubated for 72 hrs by MTS assay; type: functional, cell-based; details: HCT-116, 72 h
HCT-116 [4] = assay: Cytotoxicity against p53 knockout human HCT116 cells incubated for 72 hrs by MTS assay; type: functional, cell-based; details: HCT-116, 72 h
K562 = assay: Cytotoxicity against human K562 cells incubated for 72 hrs by MTS assay; type: functional, cell-based; details: K562, 72 h

SMILES	IC50 (A549) [µM]	IC50 (U2OS) [µM]	IC50 (CCRF-CEM) [µM]	IC50 [1] [µM]	IC50 (MRC5) [µM]	IC50 [2] [µM]	IC50 (BJ) [µM]	IC50 (HCT-116 [3]) [µM]	IC50 (HCT-116 [4]) [µM]	IC50 (K562) [µM]
C[C@H]1[C@H](C)CC[C@]2(C(=O)O)CC[C@]3(C)C(=CC[C@@H]4[C@@]5(C)Cc6sc(N7CCN(C)CC7)nc6C(C)(C)[C@@H]5CC[C@]43C)[C@H]12	> 50	> 50	47.6	> 50	> 50	> 50	> 50	> 50	> 50	> 50
C[C@H]1[C@H](C)CC[C@]2(C(=O)O)CC[C@]3(C)C(=CC[C@@H]4[C@@]5(C)Cc6sc(N)nc6C(C)(C)[C@@H]5CC[C@]43C)[C@H]12	> 50	49.6	19	33.1	> 50	29.5	> 50	43	> 50	> 50
C[C@H]1[C@H](C)CC[C@]2(C(=O)O)CC[C@]3(C)C(=CC[C@@H]4[C@@]5(C)Cc6sc(N7CCCC7)nc6C(C)(C)[C@@H]5CC[C@]43C)[C@H]12	> 50	> 50	10.7	37.5	> 50	39	> 50	39	> 50	> 50
C=C(C)[C@@H]1CC[C@]2(C(=O)O)CC[C@]3(C)[C@H](CC[C@@H]4[C@@]5(C)Cc6sc(NCc7ccccc7)nc6C(C)(C)[C@@H]5CC[C@]43C)[C@@H]12	> 50	47.5	3.7	> 50	> 50	> 50	> 50	> 50	> 50	> 50
C[C@H]1[C@H](C)CC[C@]2(C(=O)O)CC[C@]3(C)C(=CC[C@@H]4[C@@]5(C)Cc6sc(N7CCCCC7)nc6C(C)(C)[C@@H]5CC[C@]43C)[C@H]12	> 50	> 50	22	> 50	> 50	> 50	> 50	> 50	> 50	> 50
C[C@H]1[C@H](C)CC[C@]2(C(=O)O)CC[C@]3(C)C(=CC[C@@H]4[C@@]5(C)CCC(=O)C(C)(C)[C@@H]5CC[C@]43C)[C@H]12 [URSONIC ACID]	> 50	> 50	10.4	35.5	> 50	34	> 50	49.7	> 50	> 50
C=C(C)[C@@H]1CC[C@]2(C(=O)O)CC[C@]3(C)[C@H](CC[C@@H]4[C@@]5(C)Cc6sc(N7CCOCC7)nc6C(C)(C)[C@@H]5CC[C@]43C)[C@@H]12	> 50	> 50	7.2	> 50	> 50	> 50	> 50	> 50	> 50	11.2
CCN(CC)c1nc2c(s1)C[C@]1(C)[C@H]3CC[C@@H]4[C@H]5[C@H](C(C)C)CC[C@]5(C(=O)O)CC[C@@]4(C)[C@]3(C)CC[C@H]1C2(C)C	> 50	45.8	19.7	> 50	> 50	> 50	> 50	> 50	> 50	16.3
CC(C)[C@@H]1CC[C@]2(C(=O)O)CC[C@]3(C)[C@H](CC[C@@H]4[C@@]5(C)CC(Br)C(=O)C(C)(C)[C@@H]5CC[C@]43C)[C@@H]12 (stereo not given in full)	15.2	10	3.1	5.1	8	15.6	21.8	1	5.2	0.7
C=C(C)[C@@H]1CC[C@]2(C(=O)O)CC[C@]3(C)[C@H](CC[C@@H]4[C@@]5(C)CC(Br)C(=O)C(C)(C)[C@@H]5CC[C@]43C)[C@@H]12 (stereo not given in full)	24	23.4	3	23.5	20.4	17.9	33.5	31.1	32.7	35.5
CC1(C)CC[C@]2(C(=O)O)CC[C@]3(C)C(=CC[C@@H]4[C@@]5(C)CCC(=O)C(C)(C)[C@@H]5CC[C@]43C)[C@@H]2C1 [OLEANONIC ACID]	49.5	48.5	15.1	21.5	> 50	17.4	> 50	45.1	> 50	> 50
C=C(C)[C@@H]1CC[C@]2(C(=O)O)CC[C@]3(C)[C@H](CC[C@@H]4[C@@]5(C)CCC(=O)C(C)(C)[C@@H]5CC[C@]43C)[C@@H]12 [BETUNOLIC ACID]	40	38	8.4	14.9	29.5	11.2	39.5	38.1	49.4	13.6
C[C@H]1[C@H](C)CC[C@]2(C(=O)O)CC[C@]3(C)C(=CC[C@@H]4[C@@]5(C)Cc6sc(N7CCOCC7)nc6C(C)(C)[C@@H]5CC[C@]43C)[C@H]12	28.8	29.1	8.5	29.7	> 50	23.8	> 50	23.6	37.9	8.6
CCN(CC)c1nc2c(s1)C[C@]1(C)[C@H]3CC=C4[C@@H]5[C@@H](C)[C@H](C)CC[C@]5(C(=O)O)CC[C@@]4(C)[C@]3(C)CC[C@H]1C2(C)C	> 50	> 50	26.6	> 50	> 50	> 50	> 50	41.3	> 50	> 50
CC(C)[C@@H]1CC[C@]2(C(=O)O)CC[C@]3(C)[C@H](CC[C@@H]4[C@@]5(C)CCC(=O)C(C)(C)[C@@H]5CC[C@]43C)[C@@H]12 [DIHYDROBETULONIC ACID]	22.2	27.5	6.2	11.1	> 50	48.3	> 50	33.5	36.4	11.6
C=C(C)[C@@H]1CC[C@]2(C(=O)O)CC[C@]3(C)[C@H](CC[C@@H]4[C@@]5(C)Cc6sc(N7CCCCC7)nc6C(C)(C)[C@@H]5CC[C@]43C)[C@@H]12	> 50	> 50	9.3	> 50	50	> 50	> 50	> 50	> 50	35.9
C=C(C)[C@@H]1CC[C@]2(C(=O)O)CC[C@]3(C)[C@H](CC[C@@H]4[C@@]5(C)Cc6sc(N7CCCC7)nc6C(C)(C)[C@@H]5CC[C@]43C)[C@@H]12	> 50	> 50	7	22.9	> 50	> 50	> 50	> 50	> 50	> 50

— ChEMBL document CHEMBL4312011, “Synthesis and biological evaluation of triterpenoid thiazoles derived from betulonic acid, dihydrobetulonic acid, and ursonic acid” (Eur J Med Chem, 2020)
